Assay results published in article PMC7419507, “In vitro Cas9-assisted editing of modular polyketide synthase genes to produce desired natural product derivatives” (Nature Communications, 2020).
Where “and” joins values, the source holds several entries; their conditions need not be identical. Equal entries are not always repeated.

Target: T1, FKBP12 and mTOR (Homo sapiens, UniProt P42345+P62942)
T1 construct: host or cells: HeLa cells
Assay: Fluoppi analysis: induction of FKBP12-mTOR complex formation in transfected HeLa cells
Type: cell-based
Conditions: for Foci intensity: raw data, one replicate per line
Protocol: Fluoppi harbours a tetrameric fluorescent protein hAG tag and an oligomeric assembly helper Ash tag to create detectable fluorescent foci in cells when there are interactions between two proteins fused to each tag[32].
HeLa cells were maintained in DMEM (Fujifilm Wako, Osaka, Japan) supplemented with 10% FBS (Thermo Fisher Scientific, MA, USA) and 1% of Penicillin-Streptomycin (Thermo Fisher Scientific) in a humidified incubator with 5% CO2 at 37 °C. Harvested cells were plated at 1 × 10^6 cells/well in 6-well plate and incubated for 6 h. Then each 1.25 µg of phAG-mTOR and pAsh-FKBP12 (Medical and Biological Laboratories Co., Ltd., Aichi, Japan) was co-transfected with Lipofectamine 2000 reagent (Thermo Fisher Scientific) overnight. Next day, transfected cells were harvested and seeded in 384-well optical-bottom microplate (PerkinElmer, MA, USA) at a density of 3000 cells/well. After the 24 h incubation at 37 °C, cells were treated with different concentrations of compounds for 1 h. Cells were then fixed with 4% paraformaldehyde and stained with 1 µg/ml of Hoechst33342 (Thermo Fisher Scientific). Cell images of 9 visual fields/well were acquired with ×20 objective lens in Opera Phenix High-Content Screening System (PerkinElmer) and analysed by Harmony4.9 software (PerkinElmer). Because protein-protein interactions are quantified by measuring the aggregation of fluorescent elements in foci, fluorescent intensity in foci was normalised by total fluorescent intensity in each cell. EC50 values were calculated using TIBCO Spotfire 10.3 software (PerkinElmer).

T1 sequence (P42345 2025-2114 limits assumed): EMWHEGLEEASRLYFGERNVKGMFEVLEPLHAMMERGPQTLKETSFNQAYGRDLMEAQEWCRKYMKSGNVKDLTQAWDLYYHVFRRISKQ
T1 sequence (P62942 whole entry): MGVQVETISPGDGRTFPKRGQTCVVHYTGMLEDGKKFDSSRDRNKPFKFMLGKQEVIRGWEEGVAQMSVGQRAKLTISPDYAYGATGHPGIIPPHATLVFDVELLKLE

Row | Foci intensity (conc 9.53674e-5 uM) | Foci intensity (conc 0.000190735 uM) | Foci intensity (conc 0.00038147 uM) | Foci intensity (conc 0.000762939 uM) | Foci intensity (conc 0.00152588 uM) | Foci intensity (conc 0.00305176 uM) | Foci intensity (conc 0.00610352 uM) | Foci intensity (conc 0.012207 uM) | Foci intensity (conc 0.0244141 uM) | Foci intensity (conc 0.0488281 uM) | Foci intensity (conc 0.0976562 uM) | Foci intensity (conc 0.195312 uM) | Foci intensity (conc 0.390625 uM) | Foci intensity (conc 0.78125 uM) | Foci intensity (conc 1.5625 uM) | Foci intensity (conc 3.125 uM) | Foci intensity (conc 6.25 uM) | Foci intensity (conc 12.5 uM) | Foci intensity (conc 25 uM) | Foci intensity (conc 50 uM) | also measured | SMILES
1 | 0.01161 and 0.0103 and 0.03088 | 0.00895 and 0.02271 and 0.02107 | 0.01544 and 0.008548 and 0.02969 | 0.009653 and 0.01526 and 0.05621 | 0.01804 and 0.005306 and 0.005698 | 0.0369 and 0.03402 and 0.3176 | 0.06499 and 0.06076 and 0.02459 | 0.2364 and 0.2753 and 0.5339 | 0.345 and 0.3003 and 0.3827 | 0.3632 and 0.2888 and 0.4741 | 0.3612 and 0.3367 and 0.3536 | 0.3566 and 0.4014 and 0.5261 | 0.3241 and 0.3575 and 0.3236 | 0.4221 and 0.4622 and 0.4598 | 0.3074 and 0.3503 and 0.4064 | 0.4223 and 0.3831 and 0.4233 | 0.3328 and 0.3828 and 0.4116 | 0.2834 and 0.3194 and 0.3771 | 0.3113 and 0.345 and 0.3681 | 0.2989 and 0.4553 and 0.5427 | – | CO[C@H]1C[C@@H]2CC[C@@H](C)[C@@](O)(O2)C(=O)C(=O)N2CCCC[C@H]2C(=O)O[C@H]([C@H](C)C[C@@H]2CC[C@@H](O)[C@H](OC)C2)CC(=O)[C@H](C)/C=C(\C)[C@@H](O)[C@@H](OC)C(=O)[C@H](C)C[C@H](C)/C=C/C=C/C=C/1C [Compound 1, rapamycin, reference compound]
2 | 0.02068 and 0.01364 and 0.008639 | 0.01744 and 0.007135 and 0.0155 | 0.04148 and 0.01907 and 0.0147 | 0.01977 and 0.01076 and 0.01197 | 0.06388 and 0.02909 and 0.00714 | 0.01847 and 0.0327 and 0.01128 | 0.01966 and 0.01473 and 0.01204 | 0.01622 and 0.03454 and 0.02495 | 0.05679 and 0.05606 and 0.04583 | 0.1221 and 0.237 and 0.2378 | 0.306 and 0.2748 and 0.2045 | 0.3211 and 0.3269 and 0.2723 | 0.3599 and 0.2761 and 0.3358 | 0.3175 and 0.3752 and 0.289 | 0.3697 and 0.3114 and 0.3338 | 0.3541 and 0.2997 and 0.3309 | 0.3255 and 0.2796 and 0.2953 | 0.3157 and 0.354 and 0.2564 | 0.3263 and 0.3214 and 0.3499 | 0.3058 and 0.2791 and 0.2528 | PPI-inducing (binding enhancing) activity between FKBP12 and mTOR compared with rapamycin (1), in words (Fluoppi): relatively weaker activities; EC50 (Fluoppi, HeLa cells, 1 h treatment, three independent biological replicates, read-out: EC50, induction of the formation of FKBP-mTOR complex): 0.045 µM | CO[C@H]1C[C@@H]2CC[C@@H](C)[C@@](O)(O2)C(=O)C(=O)N2CCCC[C@H]2C(=O)O[C@H]([C@H](C)C[C@@H]2CC[C@@H](O)[C@H](OC)C2)CC(=O)[C@H](C)/C=C(\C)[C@@H](O)CC(=O)[C@H](C)C[C@H](C)/C=C/C=C(C)/C=C/1C [Compound 2, 27-demethoxy-19-methyl rapamycin]
